# From patent publication US20250082603A1, “OPHTHALMIC COMPOSITION CONTAINING RECOFLAVONE FOR THE TREATMENT OF DRY EYE DISEASE AND METHOD FOR PREPARING THE SAME” (GL PHARMTECH CORP., priority 2021, published 2025)
# Where two headings read alike, the source gives them in different places.
# Columns and labels:
# [1] = Dissolved state of recoflavone in sodium hydroxide aqueous solution; format: physicochemical
# Procedure: When recoflavone is not dissolved in purified water, in (S1) step, sodium hydroxide as an alkalizing agent is added in an amount of not less than 1.05 which is the ratio of molar concentration to that of recoflavone. Here, the ratio of molar concentration is expressed as a value by dividing the molar concentration of sodium hydroxide by the molar concentration of recoflavone contained in the ophthalmic composition.
# Specifically, (S1) step is a process where sodium hydroxide is added to purified water to prepare an aqueous solution having a molar concentration of not more than 0.16 M or not less than 0.19 M, and then recoflavone is added. Recoflavone can be dissolved transparently through the above process.
# The molar concentration of sodium hydroxide is calculated in the above dissolving process not in the final volume of the manufacturing process. […] Therefore an ophthalmic composition cannot be prepared efficiently. The corresponding contents will be described in details with reference to Tables 1, 2 and FIG. 9 below.
# [2] = Solubility of recoflavone in water and its pH dependence; format: physicochemical
# From the text: (§1) It has a property with low solubility at low pH. As the pH increases, it is ionized and its solubility increases.
# In general, an ophthalmic composition is preferably prepared in a transparent solution state in consideration of the feeling of use in eyes and the efficient absorption of the drug. […] Therefore, if recoflavone is not dissolved in purified water for an ophthalmic composition, a transparent solution may be prepared through (S1) step.
# [3] = Cell permeability of dissolved recoflavone; format: in vitro ADME; conditions: high degree of ionization
# From the text: as §1
# [4] = Drug distribution in each tissue of eye after 3% eye drop administered to rabbit eyes; format: in vivo; conditions: data not shown
# From the text: as §1
# [5] = tested on: human keratoconjunctival epithelial cells; conditions: cited from earlier work
# [6] = cited from earlier work
# [7] = human keratoconjunctival epithelial cells
structure (smiles),measurement,setting,value
COc1ccc(-c2cc(=O)c3c(OC)cc(OCC(=O)O)cc3o2)cc1OC [recoflavone monohydrate],Dissolved state,"[1]; molar concentration ratio 0.93, NaOH 0.196 M, recoflavone monohydrate 0.211 M",Not transparent
same,Dissolved state,"[1]; molar concentration ratio 0.97, NaOH 0.196 M, recoflavone monohydrate 0.201 M",Not transparent
same,Dissolved state,"[1]; molar concentration ratio 1.00, NaOH 0.196 M, recoflavone monohydrate 0.196 M",Not transparent
same,Dissolved state,"[1]; molar concentration ratio 1.05, NaOH 0.194 M, recoflavone monohydrate 0.184 M",Transparent
same,Dissolved state,"[1]; molar concentration ratio 1.06, NaOH 0.203 M, recoflavone monohydrate 0.192 M",Transparent
"COc1ccc(-c2cc(=O)c3c(OC)cc(OCC(=O)O)cc3o2)cc1OC [recoflavone, 2-((2-(3,4-dimethoxyphenyl)-5-methoxy-4-oxo-4H-chromen-7-yl)oxy) acetic acid]",solubility at low pH,[2]; low pH,low
same,solubility in water,[2]; water,practically insoluble
same,cell permeability,[3],poor
same,drug concentration in the cornea,[4],"high immediately after the administration, but it was rapidly decreased over time"
same,drug distribution in each tissue of eye with time,[4],rarely distributed in the tissues located inside the eye and mainly distributed in the surrounding tissues outside of the eye
same,Dissolved state of recoflavone,"[1]; NaOH aqueous solution out of the range of not more than 0.16 M or not less than 0.19 M, stirring for several hours",not dissolved transparently
same,Dissolved state of recoflavone,"[1]; final volume 40 L, recoflavone 5% (w/v), NaOH 0.196 M, purified water 28,000 mL, ratio 1.05~1.06",Transparent
same,Dissolved state of recoflavone,"[1]; final volume 70 L, recoflavone 5% (w/v), NaOH 0.196 M, purified water 49,000 mL, ratio 1.05~1.06",Transparent
same,Dissolved state of recoflavone,"[1]; final volume 100 mL, recoflavone 3% (w/v), NaOH 0.086 M, purified water 90 mL, ratio 1.05",Transparent
same,Dissolved state of recoflavone,"[1]; final volume 100 mL, recoflavone 3% (w/v), NaOH 0.097 M, purified water 80 mL",Transparent
same,Dissolved state of recoflavone,"[1]; final volume 100 mL, recoflavone 3% (w/v), NaOH 0.111 M, purified water 70 mL",Transparent
same,Dissolved state of recoflavone,"[1]; final volume 100 mL, recoflavone 5% (w/v), NaOH 0.137 M, purified water 100 mL, ratio 1.05",Transparent
same,Dissolved state of recoflavone,"[1]; final volume 100 mL, recoflavone 5% (w/v), NaOH 0.152 M, purified water 90 mL",Transparent
same,Dissolved state of recoflavone,"[1]; final volume 100 mL, recoflavone 5% (w/v), NaOH 0.196 M, purified water 70 mL",Transparent
same,Dissolved state of recoflavone,"[1]; final volume 100 mL, recoflavone 5% (w/v), NaOH 0.392 M, purified water 70 mL",Transparent
same,Dissolved state of recoflavone,"[1]; final volume 100 mL, recoflavone 6% (w/v), NaOH 0.204 M, purified water 80 mL",Transparent
same,Dissolved state of recoflavone,"[1]; final volume 100 mL, recoflavone 6% (w/v), NaOH 0.233 M, purified water 70 mL",Transparent
same,Dissolved state of recoflavone,"[1]; final volume 100 mL, recoflavone 6% (w/v), NaOH 0.466 M, purified water 70 mL",Transparent
same,Dissolved state of recoflavone,"[1]; final volume 100 mL, recoflavone 7% (w/v), NaOH 0.195 M, purified water 100 mL, ratio 1.05",Transparent
same,Dissolved state of recoflavone,"[1]; final volume 100 mL, recoflavone 7% (w/v), NaOH 0.279 M, purified water 70 mL",Transparent
same,Dissolved state of recoflavone,"[1]; final volume 100 mL, recoflavone 7% (w/v), NaOH 0.558 M, purified water 70 mL",Transparent
same,thickness of the mucin layer,[5]; 100 μM solution,significantly increased
same,"MUC1, MUC4, MUC16 and MUC5AC by real-time PCR",[5]; [7],tendency to increase significantly for four hours and then decreased rapidly
same,mucin proteins by Western blot analysis,[5]; [7],MUC5AC only had a tendency to increase and the others did not
same,hygroscopicity,[6]; form of a hydrate,stable without hygroscopicity
same,hygroscopicity,[6]; form of an anhydride,has hygroscopicity
